This note sets out measurements from US11759461B2, “Small molecule inhibitors of cancer stem cells and mesenchymal cancer types” (The Scripps Research Institute, priority 2017, dated 2023).

A value given as a limit tells only on which side of the number the result lay.

For the first assay, the system named is FOXC2-expressing HMLER cells. In words: Cell Titer Glo viability of FOXC2-HMLER cells (high throughput screen and 10-point response). It is filed as cell-based. The settings on record: Homo sapiens; scored relative to parent compound 2; 72 hours; read-out: Activity Score, inhibition of FOXC2-expressing HMLER cells by Formula II compounds. In short, it runs like this:
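FOXC2-HMLER cells (HMLER run in parallel) seeded at 1,000 cells/well in MEGM, attached 1 h, then given compound in DMSO (2 μM in the screen). After 72 h, viability was read by Cell Titer Glo luminescence.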
In general terms: In ATP-based viability assays light output follows the ATP content of the culture.
Turning to `COC(=O)c1ccccc1NC(=O)Cn1c(=O)c(CNc2ccccc2)cc2ccc(OC)cc21` [Compound 2], the IC50 is under 1 µM.

Staying with this assay, now noted: Homo sapiens; scored relative to parent compound 3; 72 hours; read-out: Activity Score, inhibition of FOXC2-expressing HMLER cells by Formula III compounds.
As to `Cc1ccc(C(=O)N2CCN(c3ccc(F)cc3)CC2)cc1-n1nnc2cccnc21` [Compound 3AA], the IC50 lay within 1 to 20 µM. For `Cc1ccc(CN2CCC(CNC(=O)c3ccc(C)c(-n4nnc5cccnc54)c3)CC2)cc1` [Compound 3AB], the IC50 was 1 to 20 µM. Still for that read-out and setting: next, `Cc1ccc(C)c(N2CCN(CCCNC(=O)c3ccc(C)c(-n4nnc5cccnc54)c3)CC2)c1` [Compound 3AC]: 1 to 20 µM. Take `Cc1ccc(Cl)cc1N1CCN(C(=O)c2cccc(-n3nnc4cccnc43)c2C)CC1` [Compound 3AD]: the IC50 lay in the range of 1 to 20 µM. Same read-out and setting: as for `Cc1c(C(=O)NC2CC2)cccc1-n1nnc2cccnc21` [Compound 3AE], the figure is 1 to 20 µM; as for `Cc1c(C(=O)N2CCC(Cc3ccccc3)CC2)cccc1-n1nnc2cccnc21` [Compound 3AF], 1 to 20 µM; as for `Cc1ccc(C)c(N2CCN(CCCNC(=O)c3cccc(-n4nnc5cccnc54)c3C)CC2)c1` [Compound 3AH], 1 to 20 µM.

For `O=C(c1ccc(-n2nnc3cccnc32)cc1)N1CCC(Cc2ccccc2)CC1` [Compound 3AI], the IC50 was in the range of 1 to 20 µM. As for `Cc1c(C(=O)N2CCN(c3ccccc3)CC2)cccc1-n1nnc2cccnc21` [Compound 3AJ], the IC50 was in the range of 1 to 20 µM. The same measure, in the same setting: next, `Cc1c(C(=O)NCCCN2CCC(Cc3ccccc3)CC2)cccc1-n1nnc2cccnc21` [Compound 3AK]: 1 to 20 µM; `CN(Cc1ccccc1)C(=O)c1ccc(-n2nnc3cccnc32)cc1` [Compound 3AL]: over 20 µM; `O=C(c1ccc(-n2nnc3cccnc32)cc1)N1CCN(c2ccccc2)CC1` [Compound 3AM]: over 20 µM. As for `O=C(c1ccc(-n2nnc3cccnc32)cc1)N1CCN(C2CCCCC2)CC1` [Compound 3AN], the IC50 was over 20 µM. Same read-out and setting: next, `CCN(Cc1ccccc1)C(=O)c1ccc(-n2nnc3cccnc32)cc1` [Compound 3AO]: over 20 µM; `COc1ccc(N2CCN(C(=O)c3ccc(-n4nnc5cccnc54)cc3)CC2)cc1` [Compound 3AP]: over 20 µM; `Cc1cc(C(=O)N2CCC(C)CC2)ccc1-n1nnc2cccnc21` [Compound 3AQ]: over 20 µM. Same read-out and setting: next, `Cc1ccc(NC(=O)c2ccc(-n3nnc4cccnc43)c(C)c2)cc1C` [Compound 3AR]: over 20 µM. On the same count and under the same terms, next, `COc1ccc(N2CCN(C(=O)c3ccc(-n4nnc5cccnc54)c(C)c3)CC2)cc1` [Compound 3AS]: over 20 µM; `Cc1ccc(NC(=O)c2ccc(-n3nnc4cccnc43)c(C)c2)cc1` [Compound 3AT]: over 20 µM; `Cc1cc(C(=O)NCCCN2CCN(C3CCCCC3)CC2)ccc1-n1nnc2cccnc21` [Compound 3AU]: over 20 µM.

Consider `O=C(c1cccc(-n2nnc3cccnc32)c1)N1CCCC1` [Compound 3AV], for which the IC50 is over 20 µM. For `CCCCN(CC)C(=O)c1cccc(-n2nnc3cccnc32)c1` [Compound 3AW], the IC50 is over 20 µM. Same read-out and setting: next, `CCCCN(C)C(=O)c1cccc(-n2nnc3cccnc32)c1` [Compound 3AX]: over 20 µM; `O=C(NC1CCN(Cc2ccccc2)CC1)c1cccc(-n2nnc3cccnc32)c1` [Compound 3AY]: over 20 µM. On to `COc1ccc(N2CCN(C(=O)c3cccc(-n4nnc5cccnc54)c3)CC2)cc1` [Compound 3AZ], for which the IC50 was over 20 µM. On the same count and under the same terms, as for `Cc1cccc(N2CCN(C(=O)c3ccc(C)c(-n4nnc5cccnc54)c3)CC2C)c1` (centres unmarked) [Compound 3A], the figure is under 1 µM. Same read-out and setting: next, `O=C(NCCCN1CCN(Cc2ccccc2)CC1)c1cccc(-n2nnc3cccnc32)c1` [Compound 3BA]: over 20 µM; `Cc1ccc(C(=O)NCc2ccccc2)cc1-n1nnc2cccnc21` [Compound 3BB]: over 20 µM. For `Cc1ccc(C(=O)N(C)Cc2ccccc2)cc1-n1nnc2cccnc21` [Compound 3BC], the IC50 was over 20 µM.

In the case of `Cc1ccc(CNC(=O)c2ccc(C)c(-n3nnc4cccnc43)c2)cc1` [Compound 3BD], the IC50 was over 20 µM. Turning to `Cc1ccc(C(=O)N2CCN(C3CCCCC3)CC2)cc1-n1nnc2cccnc21` [Compound 3BE], the IC50 was over 20 µM. Regarding `Cc1cccc(CNC(=O)c2ccc(C)c(-n3nnc4cccnc43)c2)c1` [Compound 3BF], the IC50 is over 20 µM. Same read-out and setting: as for `CCN(Cc1ccccc1)C(=O)c1ccc(C)c(-n2nnc3cccnc32)c1` [Compound 3BG], the figure is over 20 µM; as for `Cc1ccc(C(=O)NC2CCN(Cc3ccccc3)CC2)cc1-n1nnc2cccnc21` [Compound 3BH], over 20 µM. Same read-out and setting: as for `COc1ccc(N2CCN(C(=O)c3ccc(C)c(-n4nnc5cccnc54)c3)CC2)cc1` [Compound 3BI], the figure is over 20 µM; as for `Cc1ccc(C(=O)NCCCN(C)Cc2ccccc2)cc1-n1nnc2cccnc21` [Compound 3BJ], over 20 µM. The same measure, in the same setting: as for `Cc1ccc(C(=O)NCCCN2CCN(c3cccc(Cl)c3)CC2)cc1-n1nnc2cccnc21` [Compound 3BK], the figure is over 20 µM.

Take `Cc1ccc(C(=O)NCCCN2CCc3ccccc3C2)cc1-n1nnc2cccnc21` [Compound 3BL]: the IC50 is over 20 µM. The same measure, in the same setting: next, `Cc1ccc(C(=O)NCc2ccc(N(C)C)cc2)cc1-n1nnc2cccnc21` [Compound 3BM]: over 20 µM; `Cc1c(C(=O)NCc2ccccc2)cccc1-n1nnc2cccnc21` [Compound 3BN]: over 20 µM; `Cc1c(C(=O)NC2CCCCCC2)cccc1-n1nnc2cccnc21` [Compound 3BO]: over 20 µM. Turning to `Cc1c(C(=O)N2CCN(C3CCCCC3)CC2)cccc1-n1nnc2cccnc21` [Compound 3BP], the IC50 was over 20 µM.

Regarding `Cc1cccc(CNC(=O)c2cccc(-n3nnc4cccnc43)c2C)c1` [Compound 3BQ], the IC50 is over 20 µM. Still for that read-out and setting: as for `Cc1c(C(=O)N2CCC(N3CCCCC3)CC2)cccc1-n1nnc2cccnc21` [Compound 3BR], the figure is over 20 µM. Still for that read-out and setting: as for `CCCCN(C)C(=O)c1cccc(-n2nnc3cccnc32)c1C` [Compound 3BS], the figure is over 20 µM; as for `Cc1c(C(=O)NCC(C)c2ccccc2)cccc1-n1nnc2cccnc21` (centres unmarked) [Compound 3BT], over 20 µM. On the same count and under the same terms, next, `Cc1c(C(=O)NC2CCN(Cc3ccccc3)CC2)cccc1-n1nnc2cccnc21` [Compound 3BU]: over 20 µM; `Cc1c(C(=O)N2CCN(Cc3ccc4c(c3)OCO4)CC2)cccc1-n1nnc2cccnc21` [Compound 3BV]: over 20 µM; `Cc1c(C(=O)N2CCN(c3ccccc3F)CC2)cccc1-n1nnc2cccnc21` [Compound 3BW]: over 20 µM. For the compound `Cc1c(C(=O)NCCCN(C)Cc2ccccc2)cccc1-n1nnc2cccnc21` [Compound 3BX], the IC50 was over 20 µM. For the compound `Cc1c(C(=O)NCCN2CCCC2)cccc1-n1nnc2cccnc21` [Compound 3BY], the IC50 was over 20 µM. For `COc1ccc(N2CCN(CCCNC(=O)c3cccc(-n4nnc5cccnc54)c3C)CC2)cc1` [Compound 3BZ], the IC50 is over 20 µM. On the same count and under the same terms, next, `Cc1c(C(=O)N2CCN(c3cccc(Cl)c3)CC2)cccc1-n1nnc2cccnc21` [Compound 3B]: under 1 µM. The same measure, in the same setting: as for `Cc1ccc(CN2CCC(CNC(=O)c3cccc(-n4nnc5cccnc54)c3C)CC2)cc1` [Compound 3CA], the figure is over 20 µM; as for `Cc1c(C(=O)NCCCN2CCCC(C)C2)cccc1-n1nnc2cccnc21` (centres unmarked) [Compound 3CB], over 20 µM. On to `Cc1c(C(=O)NCCCN2CCN(c3ccc(F)cc3)CC2)cccc1-n1nnc2cccnc21` [Compound 3CC], for which the IC50 was over 20 µM. The same measure, in the same setting: as for `Cc1c(C(=O)NCCCN2CCN(Cc3ccccc3)CC2)cccc1-n1nnc2cccnc21` [Compound 3CD], the figure is over 20 µM; as for `Cc1c(C(=O)NCCCN2CCC(N3CCCCC3)CC2)cccc1-n1nnc2cccnc21` [Compound 3CE], over 20 µM. For `Cc1c(C(=O)NCCN(C)C2CCCCC2)cccc1-n1nnc2cccnc21` [Compound 3CF], the IC50 is over 20 µM. Consider `Cc1c(C(=O)NCc2ccc(N(C)C)cc2)cccc1-n1nnc2cccnc21` [Compound 3CG], for which the IC50 is over 20 µM.

In the case of `Cc1c(C(=O)NCCCN2CCN(C3CCCCC3)CC2)cccc1-n1nnc2cccnc21` [Compound 3CH], the IC50 is over 20 µM. As to `Cc1ccccc1CNC(=O)c1cccc(-n2nnc3cccnc32)c1C` [Compound 3CI], the IC50 was over 20 µM. The same measure, in the same setting: next, `Cc1c(C(=O)NCCC(C)N2CCCC2)cccc1-n1nnc2cccnc21` (centres unmarked) [Compound 3CJ]: over 20 µM; `Cc1c(C(=O)NC(C)C(=O)N2CCCCC2)cccc1-n1nnc2cccnc21` (centres unmarked) [Compound 3CK]: over 20 µM. The same measure, in the same setting: as for `O=C(c1ccc(-n2nnc3cccnc32)cc1)N1CCN(c2ccc(F)cc2)CC1` [Compound 3C], the figure is under 1 µM. Same read-out and setting: as for `Cc1ccc(C)c(N2CCN(C(=O)c3cccc(-n4nnc5cccnc54)c3)CC2)c1` [Compound 3D], the figure is under 1 µM. As to `Cc1ccc(Cl)cc1N1CCN(C(=O)c2cccc(-n3nnc4cccnc43)c2)CC1` [Compound 3E], the IC50 was under 1 µM. On to `COc1cccc(N2CCN(C(=O)c3cccc(-n4nnc5cccnc54)c3C)CC2)c1` [Compound 3F], for which the IC50 is under 1 µM.

Regarding `Cc1ccc(C)c(N2CCN(C(=O)c3ccc(-n4nnc5cccnc54)cc3)CC2)c1` [Compound 3G], the IC50 was in the range of 1 to 20 µM. For the compound `Cc1ccc(Cl)cc1N1CCN(C(=O)c2ccc(-n3nnc4cccnc43)cc2)CC1` [Compound 3H], the IC50 is 1 to 20 µM. On the same count and under the same terms, as for `Cc1cccc(N2CCN(C(=O)c3ccc(-n4nnc5cccnc54)cc3)CC2C)c1` (centres unmarked) [Compound 3I], the figure is 1 to 20 µM.

Turning to `O=C(c1ccc(-n2nnc3cccnc32)cc1)N1CCN(c2ccccc2F)CC1` [Compound 3J], the IC50 was 1 to 20 µM. The same measure, in the same setting: next, `Cc1ccc(C)c(N2CCN(CCCNC(=O)c3ccc(-n4nnc5cccnc54)cc3)CC2)c1` [Compound 3K]: 1 to 20 µM.
